# From ChEMBL document CHEMBL1201862, “PubChem BioAssay data set” (2004)
# Active and inactive are the calls of the source. Unless noted, no cut-off for these calls is given here.
# How the values were obtained:
# [1] = target: Metabotropic glutamate receptor 5 (Rattus norvegicus, UniProt P31424); assay: Identification of a glycine sulfonamide based non-MPEP site positive allosteric potentiator (PAM) of mGlu5 (calcium_assay).; assay type: functional
# [2] = Late stage assay provider results from the probe development effort to identify inhibitors of the Plasmodium falciparum M18 Aspartyl Aminopeptidase (M18AAP): radiolabel-based cell-based dose response assay to identify compounds that inhibit P. falciparum growth in RBCs, Set 2..; assay type: functional
# [3] = LGR2 antagonists, dose response, cell-based, HEK293, CRE-luciferase reporter, cherry pick, set 2 (AID 743343); assay type: functional;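 note: transfected cells were stimulated with diluted bursicon conditioned medium after compound addition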
# [4] = HepG2 cell cytotoxicity, dose response, cytotoxicity control, ATP luminescence, cherry-pick, activator set 2 (AID 1053143); assay type: functional, cell-based
# [5] = HepG2 cell cytotoxicity, dose response, cytotoxicity control, plate reader, cherry-pick, antagonist series (AID 743416); assay type: functional, cell-based
# [6] = A549 cell cytotoxicity, dose response, cytotoxicity control, plate reader, cherry-pick, antagonist series (AID 743412); assay type: functional, cell-based
# [7] = target: T1, Protein skinhead-1 (Caenorhabditis elegans, UniProt P34707); assay type: functional
# T1 sequence (P34707 whole entry): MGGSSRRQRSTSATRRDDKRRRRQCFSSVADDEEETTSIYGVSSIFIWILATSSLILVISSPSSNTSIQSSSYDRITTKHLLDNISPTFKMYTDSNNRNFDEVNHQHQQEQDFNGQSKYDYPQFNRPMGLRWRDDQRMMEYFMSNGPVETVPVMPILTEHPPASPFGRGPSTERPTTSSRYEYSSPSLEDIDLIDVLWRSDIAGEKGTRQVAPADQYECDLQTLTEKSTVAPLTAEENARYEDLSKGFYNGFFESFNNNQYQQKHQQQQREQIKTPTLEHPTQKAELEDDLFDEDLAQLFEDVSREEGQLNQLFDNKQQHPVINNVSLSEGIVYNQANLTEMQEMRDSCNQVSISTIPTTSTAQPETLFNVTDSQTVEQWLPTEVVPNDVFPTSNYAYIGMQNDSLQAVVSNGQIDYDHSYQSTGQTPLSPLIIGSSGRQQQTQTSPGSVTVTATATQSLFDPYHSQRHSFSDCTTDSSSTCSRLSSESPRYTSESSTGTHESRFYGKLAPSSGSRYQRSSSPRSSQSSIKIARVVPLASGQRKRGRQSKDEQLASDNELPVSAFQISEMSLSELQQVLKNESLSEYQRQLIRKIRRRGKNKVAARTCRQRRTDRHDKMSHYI
# [8] = MC4R antagonists, dose response, counter-screen for LGR2 antagonist project, cell-based, plate reader, cherry pick (AID 743444); assay type: functional;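 note: transfected HEK 293 cells stimulated with alpha-MSH peptide; potency of inhibitors of the alpha-MSH evoked signal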
# [9] = Luminescence-based cell-based high throughput dose response assay to identify activators of the DAF-12 from the parasite S. stercoralis (ssDAF-12).; assay type: functional
# [10] = Inhibition of Plasmodium falciparum NF54 Measured in Cell-Based System Using Plate Reader - 2138-11_Inhibitor_Dose_CherryPick_Activity.; assay type: functional
# [11] = T. cruzi intracellular amastigote growth inhibition, dose response, imaging, CA-I/72 strain, bovine embryo skeletal muscle, dry powder (AID 651885); assay type: functional, cell-based
# [12] = Inhibition of T. cruzi Tulahuen strain amastigotes in L-6 muscle cells Measured in Cell-Based and Microorganism Combination System Using Plate Reader - 2138-03_Inhibitor_Dose_CherryPick_Activity.; assay type: functional; settings: Rattus norvegicus, L6
# [13] = L. donovani amastigote growth inhibition, dose response, axenic amastigotes, plate reader, cherry pick (AID 651891); assay type: functional, cell-based; settings: Leishmania donovani
# [14] = T. b. rhodesiense proliferation inhibition, dose response, STIB900 strain, plate reader, cherry pick (AID 651893); assay type: functional, cell-based; settings: Trypanosoma brucei
# [15] = T. cruzi growth inhibition in host cells, dose response, cell-based, plate reader, dry powder, set 2 (AID 652275); assay type: functional
# [16] = growth inhibition of intracellular T. cruzi, dose response, cell-based, plate reader, dry powder samples (AID 651845); assay type: functional
# [17] = intracellular Trypanosoma cruzi inhibitors in host cells – cell-based, plate reader, cherry-pick samples, set 3, dose response (AID 651818); assay type: functional;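 note: compounds incubated with infected cells for about four days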
# [18] = cytotoxicity in L-6 rat myocytes, dose response, cytotoxicity control, cell-based, plate reader, cherry-pick (AID 651896); assay type: functional
# [19] = target: Potassium channel subfamily K member 3 (Rattus norvegicus, UniProt O54912); assay: SAR analysis for the identification of selective inhibitors of the two-pore domain potassium channel TASK1(KCNK3):Automated Electrophysiology.; assay type: functional
# Sequence of Potassium channel subfamily K member 3 (Rattus norvegicus, UniProt O54912) (O54912 whole entry, the tested form may be a part): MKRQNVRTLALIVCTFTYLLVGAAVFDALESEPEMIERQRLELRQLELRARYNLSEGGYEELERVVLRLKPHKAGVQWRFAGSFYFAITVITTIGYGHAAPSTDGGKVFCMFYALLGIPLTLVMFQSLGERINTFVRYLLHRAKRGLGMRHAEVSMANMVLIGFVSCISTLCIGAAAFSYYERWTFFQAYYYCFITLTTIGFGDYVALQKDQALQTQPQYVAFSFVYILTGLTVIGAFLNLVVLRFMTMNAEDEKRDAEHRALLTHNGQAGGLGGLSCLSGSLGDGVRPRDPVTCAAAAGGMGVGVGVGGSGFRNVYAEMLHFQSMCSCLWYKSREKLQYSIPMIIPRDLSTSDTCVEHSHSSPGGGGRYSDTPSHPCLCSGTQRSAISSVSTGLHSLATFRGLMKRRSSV
# [20] = target: T2, Potassium channel subfamily K member 9 (Homo sapiens, UniProt Q9NPC2); assay: KCNK9 (TASK3) current inhibition by patch clamp, SAR follow-up, selectivity assay for TASK1 (KCNK3) inhibitor project, cell-based, automated electrophysiology (AID 652210); assay type: functional
# T2 sequence (Q9NPC2 whole entry): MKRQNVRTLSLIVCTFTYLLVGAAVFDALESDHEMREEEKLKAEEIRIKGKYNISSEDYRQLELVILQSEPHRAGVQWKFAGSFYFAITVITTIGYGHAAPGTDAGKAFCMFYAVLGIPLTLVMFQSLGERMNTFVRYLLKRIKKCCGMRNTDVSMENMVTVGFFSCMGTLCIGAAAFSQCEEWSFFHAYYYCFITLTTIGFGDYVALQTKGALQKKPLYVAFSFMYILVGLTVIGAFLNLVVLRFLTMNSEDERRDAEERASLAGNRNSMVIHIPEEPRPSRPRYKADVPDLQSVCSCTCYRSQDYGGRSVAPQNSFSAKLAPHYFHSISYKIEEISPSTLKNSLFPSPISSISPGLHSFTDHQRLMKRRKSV
# [21] = target: T2, Potassium channel subfamily K member 9; assay: TASK3 (KCNK9) channel inhibitors, thallium flux, SAR follow-up, selectivity assay for TASK1 inhibitor project, cell-based, FluxOR thallium flux, concentration-response (AID 652211); assay type: functional;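 note: potency is for inhibitors of the channel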
# [22] = target: Potassium channel subfamily K member 3 (Homo sapiens, UniProt O14649); assay: TASK1 (KCNK3) potassium channel inhibitors, SAR follow-up, CHO cells, FluxOR thallium flux (AID 652212); assay type: functional
# Sequence of Potassium channel subfamily K member 3 (Homo sapiens, UniProt O14649) (O14649 whole entry): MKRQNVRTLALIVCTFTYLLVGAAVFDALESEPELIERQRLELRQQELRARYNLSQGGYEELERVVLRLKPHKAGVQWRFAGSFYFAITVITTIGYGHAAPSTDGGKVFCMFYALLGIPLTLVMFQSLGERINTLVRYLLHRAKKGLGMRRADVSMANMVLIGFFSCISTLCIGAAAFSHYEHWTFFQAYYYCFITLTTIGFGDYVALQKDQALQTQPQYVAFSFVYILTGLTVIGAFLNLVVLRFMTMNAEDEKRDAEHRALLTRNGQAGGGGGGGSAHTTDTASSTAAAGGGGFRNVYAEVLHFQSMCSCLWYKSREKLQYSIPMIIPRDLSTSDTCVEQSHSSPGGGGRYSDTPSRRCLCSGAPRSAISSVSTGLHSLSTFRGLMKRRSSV
# [23] = target: Potassium voltage-gated channel subfamily KQT member 2 (Rattus norvegicus, UniProt O88943); assay: KCNQ2 channel inhibition, SAR follow-up, selectivity assay for TASK1 inhibitor project, cell-based, FluxOR thallium flux, concentration-response (AID 652192); assay type: functional
# Sequence of Potassium voltage-gated channel subfamily KQT member 2 (O88943 whole entry): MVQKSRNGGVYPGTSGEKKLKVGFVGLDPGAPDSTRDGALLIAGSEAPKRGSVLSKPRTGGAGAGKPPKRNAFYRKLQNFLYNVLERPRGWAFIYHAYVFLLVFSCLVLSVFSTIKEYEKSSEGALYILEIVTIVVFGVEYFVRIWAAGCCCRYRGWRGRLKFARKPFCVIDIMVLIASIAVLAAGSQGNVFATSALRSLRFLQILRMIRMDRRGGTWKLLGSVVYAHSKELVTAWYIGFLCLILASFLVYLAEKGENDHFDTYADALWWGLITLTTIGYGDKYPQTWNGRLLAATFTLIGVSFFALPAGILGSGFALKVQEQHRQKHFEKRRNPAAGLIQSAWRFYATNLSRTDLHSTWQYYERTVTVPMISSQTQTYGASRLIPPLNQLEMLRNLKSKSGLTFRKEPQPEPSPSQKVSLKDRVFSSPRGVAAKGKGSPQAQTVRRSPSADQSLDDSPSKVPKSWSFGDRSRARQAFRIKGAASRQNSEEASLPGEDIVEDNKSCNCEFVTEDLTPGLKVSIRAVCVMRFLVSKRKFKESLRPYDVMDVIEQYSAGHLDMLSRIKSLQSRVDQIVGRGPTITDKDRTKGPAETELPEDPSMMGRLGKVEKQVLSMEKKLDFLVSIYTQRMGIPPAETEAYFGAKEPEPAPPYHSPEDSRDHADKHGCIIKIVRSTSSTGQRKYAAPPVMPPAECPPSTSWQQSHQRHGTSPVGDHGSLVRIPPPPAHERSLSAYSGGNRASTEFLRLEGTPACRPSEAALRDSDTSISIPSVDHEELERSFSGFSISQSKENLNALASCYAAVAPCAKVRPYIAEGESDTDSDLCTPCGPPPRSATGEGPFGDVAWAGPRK
# [24] = YAP1 pathway inhibition via CTGF transcript levels, dose response, cell-based, DLD1 colon cancer, RT-qPCR, cherry-pick (AID 1053122); assay type: functional; settings: Cancer cell lines
# [25] = cytotoxicity in A549 cells, dose response, cytotoxicity control, cell-based, cherry-picked samples (AID 1053184); assay type: functional
# [26] = cytotoxicity in HEK293 cells, dose response, cytotoxicity control, cell-based, cherry-picked samples (AID 1053185); assay type: functional
# [27] = inhibitors of PGC1a acetylation in cells, dose response, cell-based, cherry-picked samples (AID 720514); assay type: functional;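 note: potency may reflect raised or lowered acetylation signal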
# [28] = cytotoxicity in HepG2 cells, dose response, cytotoxicity control, cell-based, cherry-picked samples (AID 1053183); assay type: functional
# Sequence of Metabotropic glutamate receptor 5 (P31424 whole entry): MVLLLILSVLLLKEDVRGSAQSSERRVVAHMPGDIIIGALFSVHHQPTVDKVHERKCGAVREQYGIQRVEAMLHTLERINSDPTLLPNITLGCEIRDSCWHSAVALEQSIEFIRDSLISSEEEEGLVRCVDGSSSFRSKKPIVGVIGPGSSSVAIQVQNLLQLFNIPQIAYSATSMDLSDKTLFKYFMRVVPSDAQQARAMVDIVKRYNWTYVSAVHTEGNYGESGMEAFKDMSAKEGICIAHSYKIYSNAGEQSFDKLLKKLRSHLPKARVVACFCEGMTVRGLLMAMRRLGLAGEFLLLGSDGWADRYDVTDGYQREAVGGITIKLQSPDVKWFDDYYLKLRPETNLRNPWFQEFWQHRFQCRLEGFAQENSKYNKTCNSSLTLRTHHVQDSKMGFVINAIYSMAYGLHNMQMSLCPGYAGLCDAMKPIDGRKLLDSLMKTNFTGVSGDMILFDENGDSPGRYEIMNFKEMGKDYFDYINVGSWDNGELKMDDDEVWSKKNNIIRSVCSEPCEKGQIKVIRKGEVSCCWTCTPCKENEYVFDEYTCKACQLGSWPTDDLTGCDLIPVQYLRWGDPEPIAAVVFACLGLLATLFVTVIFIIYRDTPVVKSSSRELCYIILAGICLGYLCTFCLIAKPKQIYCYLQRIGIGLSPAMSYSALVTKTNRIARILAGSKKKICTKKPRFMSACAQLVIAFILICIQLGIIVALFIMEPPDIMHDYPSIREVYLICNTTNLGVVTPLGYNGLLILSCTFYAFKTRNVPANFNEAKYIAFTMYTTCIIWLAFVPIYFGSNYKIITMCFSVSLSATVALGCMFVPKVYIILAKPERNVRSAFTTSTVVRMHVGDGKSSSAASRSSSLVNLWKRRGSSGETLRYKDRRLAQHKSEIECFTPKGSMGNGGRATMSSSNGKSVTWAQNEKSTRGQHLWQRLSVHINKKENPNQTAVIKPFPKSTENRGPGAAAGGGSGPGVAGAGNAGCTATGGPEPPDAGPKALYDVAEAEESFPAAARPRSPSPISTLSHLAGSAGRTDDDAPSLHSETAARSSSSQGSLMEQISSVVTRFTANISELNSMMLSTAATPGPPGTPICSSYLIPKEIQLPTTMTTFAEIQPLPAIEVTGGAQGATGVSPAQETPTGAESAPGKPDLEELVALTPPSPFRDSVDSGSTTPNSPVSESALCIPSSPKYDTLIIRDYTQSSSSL
smiles,measurement,setting,value
O=C(Nc1cccc(Cl)c1)[C@H]1CCc2ccccc2N1S(=O)(=O)c1cccs1,EC50,[1],> 30 µM (inactive)
CCN(CC)Cc1cc(Nc2ccnc3cc(Cl)ccc23)ccc1O,IC50,[2],0.19 µM (active)
Cc1cc(-c2nc3cc(F)ccc3s2)ccc1N,AC50,[3],3.96 µM (active)
same,AC50,[4],0.55 µM (active)
same,AC50,[5],0.0824 µM (active)
same,AC50,[6],21.4 µM (active)
same,IC50,[7],19.1 µM (active)
same,AC50,[8],3.8 µM (active)
same,IC50,[9],> 67.6 µM (inactive)
C[C@H]1CN([C@@H](C)CO)C(=O)c2cccc(NC(=O)c3ccncc3)c2O[C@@H]1CN(C)Cc1ccccc1,IC50,[10],4.83 µM (inactive)
same,IC50,[11],0.00942 µM (active)
same,IC50,[12],4.83 µM (inactive)
same,IC50,[13],84.4 µM (inactive)
same,IC50,[14],35.1 µM (inactive)
same,AC50,[15],0.0123 µM (active)
same,AC50,[16],0.0123 µM (active)
same,AC50,[17],0.08 µM (active)
same,IC50,[18],> 100 µM (inactive)
CCOc1ccccc1C(=O)Nc1cccc(NC(=O)c2cccc(C)c2)c1,IC50,[19],0.011 µM (active)
same,IC50,[20],0.38 µM (active)
same,IC50,[21],0.44 µM (active)
same,IC50,[22],0.01 µM (active)
same,IC50,[23],1.88 µM (active)
CO[C@@H](CN(C)S(=O)(=O)c1ccc(C)cc1)[C@@H](C)CN([C@H](C)CO)S(=O)(=O)c1cccc(Cl)c1,AC50,[24],18.6 µM (active)
Cc1cccc(-c2ccc([C@@H]3[C@@H]4CN(Cc5cccc(F)c5)C[C@H]3N4)cc2)c1,AC50,[25],35.4 µM (active)
same,AC50,[26],27.1 µM (active)
same,AC50,[27],20.4 µM (active)
same,AC50,[28],17.7 µM (active)
